Assay results taken from PMC12770603 (Scientific Reports, 2025).

Tested on: EstN3
Assay: p-nitrophenol release at […] nm, Michaelis-Menten non-linear fit
Type: biochemical, uncultured bacterium
Details: pH 7.0, 37 °C, 15 min

- Km: 1520 µM
Compound: CCCCC(=O)Oc1ccc([N+](=O)[O-])cc1 [pNP-valerate]
